Assay [1] has as its target T1, human bradykinin 1 receptor (B1R) (Homo sapiens, UniProt P46663).
T1 construct: expressed in transfected cells; host or cells: CHO K1 cells
T1 sequence (P46663 1-353): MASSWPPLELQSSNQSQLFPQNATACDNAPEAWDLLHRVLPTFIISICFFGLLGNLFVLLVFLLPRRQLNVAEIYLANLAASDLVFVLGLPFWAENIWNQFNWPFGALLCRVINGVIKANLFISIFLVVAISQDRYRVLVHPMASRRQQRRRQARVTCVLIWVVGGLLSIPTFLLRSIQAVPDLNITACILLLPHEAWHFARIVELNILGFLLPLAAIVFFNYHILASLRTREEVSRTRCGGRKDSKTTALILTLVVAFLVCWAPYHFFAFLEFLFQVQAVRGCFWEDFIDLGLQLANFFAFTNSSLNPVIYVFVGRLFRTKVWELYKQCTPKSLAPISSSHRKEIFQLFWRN
Briefly: Functional investigation on the human bradykinin 1 receptor (B1R), Ca2+ FLIPR assay in CHO K1 hB1R cells. The settings on record: CHO-K1, B1R antagonism human; test substance 10 μM; Ca2+ FLIPR, CHO K1 hB1R cells; read-out: B1R Ant. h [10 μM] % Inhibition. Type of assay: cell-based. A digest of the protocol: (§1)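 Fluo-4 Ca2+ readout, peak fluorescence. Stable CHO K1 transfectants; compound pre-incubated 10-20 min, then EC80 agonist—Lys-Des-Arg9-BK for hB1R, Des-Arg9-BK for rB1R. % inhibition vs maximal inhibition; IC50 from multiple concentrations, duplicate/triplicate, ≥2 independent runs.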

The target of assay [2] is T2, bradykinin 1 receptor (B1R) of the rat (Rattus norvegicus, UniProt P97583).
T2 construct: expressed in transfected cells; host or cells: CHO K1 cells
T2 sequence (P97583 1-337): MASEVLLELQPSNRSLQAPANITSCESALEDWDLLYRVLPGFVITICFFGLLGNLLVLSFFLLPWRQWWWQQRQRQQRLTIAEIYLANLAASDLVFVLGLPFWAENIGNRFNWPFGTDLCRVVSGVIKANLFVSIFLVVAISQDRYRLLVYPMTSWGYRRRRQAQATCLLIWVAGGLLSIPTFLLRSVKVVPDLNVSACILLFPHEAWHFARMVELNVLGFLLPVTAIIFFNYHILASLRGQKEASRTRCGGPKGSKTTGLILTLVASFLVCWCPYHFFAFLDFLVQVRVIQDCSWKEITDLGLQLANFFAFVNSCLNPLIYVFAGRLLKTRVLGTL
Nature of the assay: Functional investigation on the rat bradykinin 1 receptor (B1R), Ca2+ FLIPR assay in CHO K1 rB1R cells. The format is cell-based. The settings on record: CHO-K1, B1R antagonism rat; test substance 10 μM; Ca2+ FLIPR, CHO K1 rB1R cells; read-out: B1R Ant. r [10 μM] % Inhibition. A digest of the protocol:
as §1

For assay [3], the target named is T3, human μ opiate receptor (Homo sapiens, UniProt P35372).
T3 construct: purchased PerkinElmer Life Sciences, Zaventem, Belgium RB-HOM; host or cells: CHO-K1 cells (membrane preparation)
Nature of the assay: Affinity for the human μ opiate receptor ([3H]-naloxone displacement, CHO-K1 receptor membrane preparation, SPA). Type of assay: binding. The settings on record: 1.5 h, Table 3, to be read in the same way as Table 1; test concentration 1 μM; read-out: μ. In short, it runs like this: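 Displacement of 1 nmol/l [3H]-naloxone measured by SPA counting after 90 min at room temperature, using human μ receptor CHO-K1 membrane preparation in Tris-HCl buffer with 0.06% BSA. Test substances at 1 μmol/l give % inhibition; dilution series yield IC50, then Ki (Cheng-Prusoff); non-specific binding with 100 μmol/l naloxone.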

T3 sequence (P35372 whole entry): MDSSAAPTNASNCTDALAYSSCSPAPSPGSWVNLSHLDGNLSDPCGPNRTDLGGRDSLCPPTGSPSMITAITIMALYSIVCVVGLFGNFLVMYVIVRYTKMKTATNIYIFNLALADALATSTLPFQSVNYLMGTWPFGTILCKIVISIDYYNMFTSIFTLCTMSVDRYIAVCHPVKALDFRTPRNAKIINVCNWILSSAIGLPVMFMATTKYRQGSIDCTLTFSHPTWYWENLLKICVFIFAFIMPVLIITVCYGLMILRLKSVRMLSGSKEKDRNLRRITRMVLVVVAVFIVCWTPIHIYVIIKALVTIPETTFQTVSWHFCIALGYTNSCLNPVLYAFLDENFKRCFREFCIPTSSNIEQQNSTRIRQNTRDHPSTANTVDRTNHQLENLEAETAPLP

As for `O=C(COCC1CCCN1S(=O)(=O)c1c(Cl)cc(Cl)cc1Cl)NC1CCC(C(CCc2ccccc2)N2CCCCC2)CC1` (stereo not drawn) [Example 697, N-(4-(3-phenyl-1-(piperidin-1-yl)propyl)cyclohexyl)-2-((1-(2,4,6-trichlorophenylsulfonyl)pyrrolidin-2-yl)methoxy)acetamide], the inhibition at 10 µM in assay [1] was 71%; in assay [2] it was 97%. The inhibition at 1 µM in assay [3] was determined as 76%.

For the compound `O=C(COCC1CCCN1S(=O)(=O)c1c(Cl)cc(Cl)cc1Cl)NC1CCC(C(c2ccccc2)N2CCOCC2)CC1` (stereo not drawn) [Example 698, N-(4-(morpholino(phenyl)methyl)cyclohexyl)-2-((1-(2,4,6-trichlorophenylsulfonyl)pyrrolidin-2-yl)methoxy)acetamide], the results for the inhibition at 10 µM in assay [1] and in assay [2] were 39% and 86%, respectively. Moreover, the inhibition at 1 µM in assay [3] came out at 40%.

`COc1cc(C)c(S(=O)(=O)N2CCCCC2COCC(=O)NC2CCC(C(c3ccccc3)N3CCOCC3)CC2)c(C)c1` (stereo not drawn) [Example 699, 2-((1-(4-methoxy-2,6-dimethylphenylsulfonyl)piperidin-2-yl)methoxy)-N-(4-(morpholino(phenyl)methyl)cyclohexyl)acetamide]: the figures for the inhibition at 10 µM in assay [1] and in assay [2] were 90% and 104%, respectively. Also, the inhibition at 1 µM in assay [3] was found to be 15%.

As for `O=C(COCC1CCCCN1S(=O)(=O)c1c(Cl)cc(Cl)cc1Cl)NC1CCC(C(c2ccccc2)N2CCOCC2)CC1` (stereo not drawn) [Example 700, N-(4-(morpholino(phenyl)methyl)cyclohexyl)-2-((1-(2,4,6-trichlorophenylsulfonyl)piperidin-2-yl)methoxy)acetamide], the inhibition at 10 µM is 38% in assay [1] and 89% in assay [2]. For the same compound, the inhibition at 1 µM in assay [3] stood at 27%.

Take `COc1cc(C)c(S(=O)(=O)N2CCCC(COCC(=O)NC3CCC(C(c4ccccc4)N4CCOCC4)CC3)C2)c(C)c1` (stereo not drawn) [Example 701, 2-((1-(4-methoxy-2,6-dimethylphenylsulfonyl)piperidin-3-yl)methoxy)-N-(4-(morpholino(phenyl)methyl)cyclohexyl)acetamide]: the results for the inhibition at 10 µM in assay [1] and in assay [2] were 16% and 49%, respectively. The inhibition at 1 µM in assay [3] came out at 2%.

With `COc1cc(C)c(S(=O)(=O)N2CCCC(COCC(=O)NC3CCC(C(c4ccccc4)N4CCN(C)CC4)CC3)C2)c(C)c1` (stereo not drawn) [Example 702, 2-((1-(4-methoxy-2,6-dimethylphenylsulfonyl)piperidin-3-yl)methoxy)-N-(4-((4-methylpiperazin-1-yl)(phenyl)methyl)cyclohexyl)acetamide], the values for the inhibition at 10 µM in assay [1] and in assay [2] were 70% and 74%, respectively. Moreover, the inhibition at 1 µM in assay [3] was 19%.

As for `O=C(COCC1CCCN(S(=O)(=O)c2c(Cl)cc(Cl)cc2Cl)C1)NC1CCC(C(c2ccccc2)N2CCOCC2)CC1` (stereo not drawn) [Example 703, N-(4-(morpholino(phenyl)methyl)cyclohexyl)-2-((1-(2,4,6-trichlorophenylsulfonyl)piperidin-3-yl)methoxy)acetamide], the inhibition at 10 µM is -4% in assay [1] and 37% in assay [2]. Further, the inhibition at 1 µM in assay [3] amounted to 19%.

For `CN1CCN(C(c2ccccc2)C2CCC(NC(=O)COCCN(C)S(=O)(=O)c3ccc(Cl)cc3Cl)CC2)CC1` (stereo not drawn) [Example 704, 2-(2-(2,4-dichloro-N-methylphenylsulfonamido)ethoxy)-N-(4-((4-methylpiperazin-1-yl)(phenyl)methyl)cyclohexyl)acetamide], the results for the inhibition at 10 µM in assay [1] and in assay [2] were 75% and 39%, respectively. Besides, the inhibition at 1 µM in assay [3] was 27%.

As to `CN(CCOCC(=O)NCC1CCC(C(c2ccccc2)N2CCOCC2)CC1)S(=O)(=O)c1ccc(Cl)cc1Cl` (stereo not drawn) [Example 705, 2-(2-(2,4-dichloro-N-methylphenylsulfonamido)ethoxy)-N-((4-(morpholino(phenyl)methyl)cyclohexyl)methyl)acetamide], the inhibition at 10 µM in assay [1] is 49%; in assay [2] it was -9%. In addition, the inhibition at 1 µM in assay [3] worked out at 8%.

`CN(CCOCC(=O)NCC1CCC(C(c2ccccc2)N2CCOCC2)CC1)S(=O)(=O)c1c(Cl)cccc1Cl` (stereo not drawn) [Example 706, 2-(2-(2,6-dichloro-N-methylphenylsulfonamido)ethoxy)-N-((4-(morpholino(phenyl)methyl)cyclohexyl)methyl)acetamide]: the inhibition at 10 µM in assay [1] is 77%; in assay [2], 52%. In addition, the inhibition at 1 µM in assay [3] is 7%.

On to `O=C(COC1CCCN(S(=O)(=O)c2c(Cl)cc(Cl)cc2Cl)C1)NCC1CCC(C(c2ccccc2)N2CCOCC2)CC1` (stereo not drawn) [Example 707, N-((4-(morpholino(phenyl)methyl)cyclohexyl)methyl)-2-(1-(2,4,6-trichlorophenylsulfonyl)piperidin-3-yloxy)acetamide], for which the inhibition at 10 µM turned out to be 2% in assay [1] and 25% in assay [2]. In assay [3], the inhibition at 1 µM came out at 28%.

Regarding `COc1cc(C)c(S(=O)(=O)N2CCCC(OCC(=O)NC3CCC(C(c4ccccc4)N4CCN(C)CC4)CC3)C2)c(C)c1` (stereo not drawn) [Example 708, 2-(1-(4-methoxy-2,6-dimethylphenylsulfonyl)piperidin-3-yloxy)-N-(4-((4-methylpiperazin-1-yl)(phenyl)methyl)cyclohexyl)acetamide], the inhibition at 10 µM in assay [1] was 100%; in assay [2], 91%. The inhibition at 1 µM in assay [3] was determined as 29%.

For the compound `COc1cc(C)c(S(=O)(=O)N2CCCC2COCC(=O)NCC2CCC(C(c3ccccc3)N3CCOCC3)CC2)c(C)c1` (stereo not drawn) [Example 709, 2-((1-(4-methoxy-2,6-dimethylphenylsulfonyl)pyrrolidin-2-yl)methoxy)-N-((4-(morpholino(phenyl)methyl)cyclohexyl)methyl)acetamide], the inhibition at 10 µM in assay [1] stood at 82%; in assay [2], 104%. In addition, the inhibition at 1 µM in assay [3] was found to be 8%.

With `O=C(COCC1CCCN1S(=O)(=O)c1c(Cl)cc(Cl)cc1Cl)NCC1CCC(C(c2ccccc2)N2CCOCC2)CC1` (stereo not drawn) [Example 710, N-((4-(morpholino(phenyl)methyl)cyclohexyl)methyl)-2-((1-(2,4,6-trichlorophenylsulfonyl)pyrrolidin-2-yl)methoxy)acetamide], the inhibition at 10 µM in assay [1] worked out at 42%; in assay [2], 92%. Moreover, the inhibition at 1 µM in assay [3] amounted to 24%.

For `COc1cc(C)c(S(=O)(=O)N2CCCCC2COCC(=O)NCC2CCC(C(c3ccccc3)N3CCOCC3)CC2)c(C)c1` (stereo not drawn) [Example 711, 2-((1-(4-methoxy-2,6-dimethylphenylsulfonyl)piperidin-2-yl)methoxy)-N-((4-(morpholino(phenyl)methyl)cyclohexyl)methyl)acetamide], the inhibition at 10 µM in assay [1] stood at 86%; in assay [2], 103%. Also, the inhibition at 1 µM in assay [3] is 33%.

As to `O=C(COCC1CCCCN1S(=O)(=O)c1c(Cl)cc(Cl)cc1Cl)NCC1CCC(C(c2ccccc2)N2CCOCC2)CC1` (stereo not drawn) [Example 712, N-((4-(morpholino(phenyl)methyl)cyclohexyl)methyl)-2-((1-(2,4,6-trichlorophenylsulfonyl)piperidin-2-yl)methoxy)acetamide], the inhibition at 10 µM came out at 46% in assay [1] and 100% in assay [2]. Besides, in assay [3], the inhibition at 1 µM came to 40%.

As to `CN1CCN(C(c2ccccc2)C2CCC(NC(=O)COCCN(C)S(=O)(=O)c3c(Cl)cc(Cl)cc3Cl)CC2)CC1` (stereo not drawn) [Example 714, N-(4-((4-methylpiperazin-1-yl)(phenyl)methyl)cyclohexyl)-2-(2-(2,4,6-trichloro-N-methylphenylsulfonamido)ethoxy)acetamide], the inhibition at 10 µM in assay [1] was determined as 104%; in assay [2], 64%. Further, in assay [3], the inhibition at 1 µM worked out at 52%.

`CN(CCOCC(=O)NCC1CCC(C(CCc2ccccc2)N2CCOCC2)CC1)S(=O)(=O)c1c(Cl)cc(Cl)cc1Cl` (stereo not drawn) [Example 715, N-((4-(1-morpholino-3-phenylpropyl)cyclohexyl)methyl)-2-(2-(2,4,6-trichloro-N-methylphenylsulfonamido)ethoxy)acetamide]: the inhibition at 10 µM stood at 55% in assay [1] and 24% in assay [2]. Besides, the inhibition at 1 µM in assay [3] is 10%.

These data come from patent US8106055B2, “Substituted amide compounds” (Gruenenthal GmbH, priority 2007, dated 2012).
